From ChEMBL document CHEMBL4130349, “Discovery and structure-activity relationship studies of 2-benzylidene-2,3-dihydro-1H-inden-1-one and benzofuran-3(2H)-one derivatives as a novel class of potential therapeutics for inflammatory bowel disease” (Eur J Med Chem, 2017)
Activity calls are given as the source filed them. The calls are words filed in the database; no cut-off is given here.

Tests used:
HT-29 [1] = assay: Inhibition of TNF-alpha-induced adhesion of BCECF-labeled human U937 cells to human HT-29 cells at 10 uM preincubated for 1 hr followed by TNF-alpha challenge measured after 3 hrs by fluorescence microscopic method relative to control; format: functional
HT-29 [2] = assay: Inhibition of TNF-alpha-induced adhesion of BCECF-labeled human U937 cells to human HT-29 cells preincubated for 1 hr followed by TNF-alpha challenge measured after 3 hrs by fluorescence microscopic method; format: functional, cell-based
HT-29 [3] = assay: Inhibition of TNF-alpha-induced ICAM-1 expression in human HT-29 cells at 10 uM preincubated for 1 hr followed by TNF-alpha challenge measured after 3 hrs by Western blot analysis; format: functional, cell-based
HT-29 [4] = assay: Inhibition of TNF-alpha-induced MCP-1 expression in human HT-29 cells at 10 uM preincubated for 1 hr followed by TNF-alpha challenge measured after 3 hrs by Western blot analysis; format: functional, cell-based
HT-29 [5] = assay: Inhibition of TNF-alpha-induced NFkappa-B transcriptional activity in human HT-29 cells at 10 uM preincubated for 1 hr followed by TNF-alpha challenge measured after 3 hrs by dual luciferase reporter gene assay; format: functional, cell-based
HT-29 [6] = assay: Inhibition of TNF-alpha-induced ROS production in human HT-29 cells at 10 uM preincubated for 1 hr followed by TNF-alpha challenge measured after 30 mins by DCF-DA dye-based fluorescence microscopy; format: functional, cell-based
HT-29 [7] = assay: Inhibition of TNF-alpha-induced ROS production in human HT-29 cells at 100 uM preincubated for 1 hr followed by TNF-alpha challenge measured after 30 mins by DCF-DA dye-based fluorescence microscopy; format: functional, cell-based
HT-29 [8] = assay: Inhibition of LPS-induced TNF-alpha expression in human HT-29 cells at 10 uM preincubated for 1 hr followed by TNF-alpha challenge measured after 3 hrs by Western blot method; format: functional, cell-based
HT-29 [9] = assay: Inhibition of TNF-alpha-induced AP-1 transcriptional activity in human HT-29 cells at 10 uM preincubated for 1 hr followed by TNF-alpha challenge measured after 3 hrs by dual luciferase reporter gene assay; format: functional, cell-based

Structure (SMILES) | inhibition at 10 µM (HT-29 [1]) [%] | further results
COc1ccc(/C=C2\Cc3cccc(O)c3C2=O)cc1O | 35 | –
O=C1/C(=C/c2ccc(O)cc2)Cc2ccccc21 | 72.6 | IC50 (HT-29 [2]): 1530 nM; inhibition (HT-29 [3]): Active; inhibition (HT-29 [4]): Active; inhibition (HT-29 [5]): Active; inhibition (HT-29 [6]): Active
O=C1/C(=C/c2cccc(O)c2)Cc2cccc(O)c21 | 60.5 | –
O=C1/C(=C/c2ccc(-c3ccccc3)cc2)Cc2ccccc21 | 62.6 | –
O=C1/C(=C/c2ccc(Cl)o2)Oc2ccccc21 | 62.2 | –
O=C1/C(=C/c2cccc(O)c2)Cc2ccc(O)cc21 | 62.7 | –
O=C1/C(=C/c2ccccc2F)Cc2ccccc21 | 27.8 | –
COc1cc(C(C)=O)ccc1O | – | inhibition (HT-29 [7]): Active
O=C1/C(=C/c2ccccc2Cl)Oc2cc(O)ccc21 | 45.5 | –
O=C1/C(=C/c2ccccc2)Cc2ccccc21 | 55.3 | IC50 (HT-29 [2]): 5750 nM; inhibition (HT-29 [4]): Active; inhibition (HT-29 [5]): Active
O=C1/C(=C/c2ccc(C(F)(F)F)cc2)Cc2ccccc21 | 22.5 | –
O=C1/C(=C/c2ccccc2O)Cc2c(O)cccc21 | 30.3 | –
O=C1/C(=C/c2ccc(O)cc2)Cc2cccc(O)c21 | 69.8 | –
O=C1/C(=C/c2ccc(Cl)s2)Oc2ccccc21 | 75.1 | IC50 (HT-29 [2]): 3720 nM; inhibition (HT-29 [3]): Active; inhibition (HT-29 [4]): Active; inhibition (HT-29 [5]): Active; inhibition (HT-29 [6]): Active
O=C1/C(=C/c2ccc(O)cc2)Cc2cc(O)ccc21 | 45.4 | –
O=C1/C(=C/c2cccc(O)c2)Oc2cc(O)ccc21 | 75.7 | IC50 (HT-29 [2]): 1680 nM; inhibition (HT-29 [3]): Active; inhibition (HT-29 [4]): Active; inhibition (HT-29 [5]): Active; inhibition (HT-29 [6]): Active
O=C1/C(=C/c2ccccc2Cl)Oc2ccccc21 | 50.7 | –
O=C1/C(=C/c2ccc(Cl)cc2)Cc2cc(O)ccc21 | 0.2 | –
O=C1/C(=C/c2ccc(Cl)cc2)Oc2cc(O)ccc21 [6-HYDROXY-4'-CHLORO AURONE] | 49 | –
O=C1/C(=C/c2ccccc2C(F)(F)F)Cc2ccccc21 | 42.8 | –
O=C1/C(=C/c2cccc(OC(F)(F)F)c2)Cc2ccccc21 | 9.9 | –
O=C1/C(=C/c2ccc(O)cc2)Cc2ccc(O)cc21 | 80.3 | IC50 (HT-29 [2]): 830 nM; inhibition (HT-29 [3]): Active; inhibition (HT-29 [4]): Active; inhibition (HT-29 [5]): Active; inhibition (HT-29 [6]): Active; inhibition (HT-29 [8]): Active; inhibition (HT-29 [9]): Active
O=C1/C(=C/c2cccc(-c3ccccc3)c2)Cc2ccccc21 | 33.4 | –
O=C1/C(=C/c2cccc(Cl)c2)Oc2cc(O)ccc21 | 45.9 | –
COc1ccc(/C=C2\Cc3cc(O)ccc3C2=O)cc1O | -2.5 | –
O=C1/C(=C/c2cccc(O)c2)Cc2c(O)cccc21 | 6.1 | –
O=C1/C(=C/c2ccc(F)cc2)Cc2ccccc21 | 7.1 | –
O=C1/C(=C/c2ccc(Cl)s2)Cc2ccccc21 | 5.7 | –
O=C1/C(=C/c2ccccn2)Cc2ccccc21 | 21.9 | –
O=C1/C(=C/c2ccc(Cl)o2)Cc2ccccc21 | -8.9 | –
